Counter-ions that a name gives are not always drawn.
Experiment: Solubility of HCl salt 1-11D suspended in solvents for 7 days at room temperature
Type: physicochemical
Settings: RT for 7 days
Protocol: HCl salt 1-11D is also crystalline as witnessed by the X-ray powder diffraction pattern of the material, having multiple diffraction peaks between 5° and 30° 2-theta. […] (rate of 10° C./min). The compound is birefringent under plane polarized light. It is needle-shaped particles of approximately 5-25 micron. The solubility of salt 1-11D was measured in water and various organic solvents. Table VI below summarizes the solubility of the 1-11D suspended in various solvents for 7 days at room temperature.

## CS(=O)(=O)N1CCN(Cc2ccc3[nH]c(-c4cc5ccccc5[nH]c4=O)cc3c2)CC1 [Salt 1-11D]
Aqueous ETOH
  solubility: 4340 µg/mL
Aqueous IPA
  solubility: 3990 µg/mL
Ethanol
  solubility: 130 µg/mL
Isopropanol
  solubility: 57 µg/mL
Water
  solubility: 620 µg/mL
